Data on six molecules can be found in patent US12655437B2, “Compositions and methods for modulating the gastrointestinal tract using bile salt hydrolases” (North Carolina State University, priority 2019, dated 2026).

The subject of one test is L. acidophilus ΔbshAB. Briefly: Growth of L. acidophilus bsh mutants in MRS media supplemented with bile acids. It is filed as cell-based, Lactobacillus acidophilus. The method, then:
FIG. 12: L. acidophilus bshA and bshB contribute to bile acid detoxification in a substrate dependent manner. Growth of BSH mutants in the presence of bile acids. To evaluate the role of BSH activity during L. acidophilus growth, single and double BSH mutants were grown in MRS media supplemented with bile acids and growth was measured by OD600 nm.
FIGS. 13A-13G: L. acidophilus bshA and bshB contribute to bile acid detoxification in a substrate and concentration dependent manner.
FIGS. 12-14 include representative results of experiments conducted to evaluate the role of BSH activity during L. acidophilus growth. […] The L. acidophilus strains with deletion in bshA, bshB, and bshAB were tested in plate assays and growth curves were determined. The ΔbshA, ΔbshB, and ΔbshAB L. acidophilus and L. gasseri strains were grown in the presence of conjugated bile acids to test BSH contributions to bile acid detoxification. FIG. 12 provides growth curves of L. acidophilus mutants grown in a variety of bile acid concentrations. As shown, single and double BSH mutants (ΔbshA and ΔbshB) were grown in MRS media supplemented with bile acids.
Error bars represent s.d. from n=4 independent experiments. Dashed lined denotes the approximate starting CFUs/mL at 0 h. Exogenous recombinant LaBSHa and LaBSHb (LaBSHab) or LgBSHa and LgBSHb (LgBSHab) were supplemented to cultures in equimolar amounts to L. acidophilus ΔbshAB or L. gasseri ΔbshAB growths to functionally complement ΔbshAB strains.

For the next test, the system named is L. gasseri ΔbshAB. Briefly: Growth of L. gasseri bsh mutants in MRS media supplemented with bile acids. It is filed as cell-based, Lactobacillus gasseri. The method, then:
Error bars represent standard deviation (s.d.) from n=4 independent experiments. Dashed lined denotes the approximate starting CFUs/mL at 0 h. Exogenous recombinant LaBSHa and LaBSHb (LaBSHab) or LgBSHa and LgBSHb (LgBSHab) were supplemented to cultures in equimolar amounts to (A) L. acidophilus ΔbshAB or (B) L. gasseri ΔbshAB growths to functionally complement ΔbshAB strains.
The L. acidophilus strains with deletion in bshA, bshB, and bshAB were tested in plate assays and growth curves were determined. The ΔbshA, ΔbshB, and ΔbshAB L. acidophilus and L. gasseri strains were grown in the presence of conjugated bile acids to test BSH contributions to bile acid detoxification. FIG. 12 provides growth curves of L. acidophilus mutants grown in a variety of bile acid concentrations.

The subject of test [1] is C. difficile. The experiment in a line: Growth of C. difficile anaerobically in BHIS medium supplemented with bile acids and purified BSH. It is filed as cell-based, Clostridioides difficile. Particulars: BHIS media supplemented with the bile acid alone. The method, then:
FIGS. 22A-22C: BSH specificity can leveraged to inhibit Clostridioides difficile in a conjugated bile acid substrate-dependent manner. (A) Recombinantly expressed and purified L. johnsonii BSHs were assayed for deconjugation with GCDCA and TCDCA. Specific activities for each BSH were determined by quantifying the rate of amino acid release by Ninhydrin assay. (B, C) Growth of C. difficile anaerobically in BHIS medium supplemented with GCDCA, TCDCA, or CDCA in combination with purified LjoBSHa or LjoBSHc.
As shown in FIGS. 9-11, recombinant BHSs were overexpressed and purified to homogeneity, and experiments were conducted to evaluate their activity. Two recombinant BSH enzymes were used for this assay. […] TCDCA was chosen as a conjugated bile acid to be used in the growth assays due to C. difficile's sensitivity to the CDCA that is released from BSH activity. […] A high dosage of LjoBSHa is needed to overcome its catalytic deficiency (FIG. 9).
TCDCA was chosen as a conjugated bile acid to be used in this growth (FIGS. 22B-22C) assay due to C. difficile's sensitivity to the CDCA that is released from BSH activity. […] A high dosage of LjoBSHa is needed to overcome its catalytic deficiency.

Test [2] has as its system C. difficile. Particulars: cited from earlier work.

On to `C[C@H](CCC(=O)NCC(=O)O)[C@H]1CC[C@H]2[C@@H]3[C@H](O)C[C@@H]4C[C@H](O)CC[C@]4(C)[C@H]3C[C@H](O)[C@]12C` [GCA, glycocholate], for which the “growth of L. acidophilus ΔbshAB” value in the test with L. acidophilus ΔbshAB (5 mM bile acid in MRS) is “less inhibited”. Further, the “growth of L. gasseri ΔbshAB” value in the test on L. gasseri ΔbshAB (5 mM bile acid in MRS) is “significantly less inhibited”.
Take `C[C@H](CCC(=O)NCC(=O)O)[C@H]1CC[C@H]2[C@@H]3[C@H](O)C[C@@H]4C[C@H](O)CC[C@]4(C)[C@H]3CC[C@]12C` [GCDCA, glycochendeoxycholate]: the “growth of L. acidophilus ΔbshAB” value in the test with L. acidophilus ΔbshAB (2.5 mM bile acid in MRS) is “significantly inhibited”. In the test with L. gasseri ΔbshAB (2.5 mM bile acid in MRS), the “growth of L. gasseri ΔbshAB” value is reported as “significantly inhibited”.
Turning to `C[C@H](CCC(=O)O)[C@H]1CC[C@H]2[C@@H]3[C@H](O)C[C@@H]4C[C@H](O)CC[C@]4(C)[C@H]3CC[C@]12C` [CDCA, chendeoxycholate], in the test with C. difficile [1], the C. difficile growth result was “complete inhibition”. Moreover, in the test on C. difficile [2], the “C. difficile spore germination” value is given as “inhibits” and the “C. difficile vegetative cells” value is given as “kills”.
For the molecule `C[C@H](CCC(=O)NCCS(=O)(=O)O)[C@H]1CC[C@H]2[C@@H]3[C@H](O)C[C@@H]4C[C@H](O)CC[C@]4(C)[C@H]3CC[C@]12C` [TCDCA, taurochendeoxycholate], in the test on C. difficile [1], the C. difficile growth result is recorded as “no inhibition of growth”. The “growth of L. acidophilus ΔbshAB” value with L. acidophilus ΔbshAB (5 mM bile acid in MRS) was “less inhibited”. In addition, in the test with C. difficile [2] (bile acid alone), the “effect on C. difficile” value is reported as “does not affect C. difficile”.
As to `C[C@H](CCC(=O)NCC(=O)O)[C@H]1CC[C@H]2[C@@H]3CC[C@@H]4C[C@H](O)CC[C@]4(C)[C@H]3C[C@H](O)[C@]12C` [GDCA, glycodeoxycholate], in the test on L. acidophilus ΔbshAB (2.5 mM bile acid in MRS), the “growth of L. acidophilus ΔbshAB” value is given as “significantly inhibited”. Further, in the test on L. gasseri ΔbshAB (1.25 mM bile acid in MRS), the “growth of L. gasseri ΔbshAB” value was “significantly inhibited”.
As to `C[C@H](CCC(=O)NCCS(=O)(=O)O)[C@H]1CC[C@H]2[C@@H]3CC[C@@H]4C[C@H](O)CC[C@]4(C)[C@H]3C[C@H](O)[C@]12C` [TDCA, taurodeoxycholate], the “growth of L. acidophilus ΔbshAB” value in the test with L. acidophilus ΔbshAB (5 mM bile acid in MRS) is “significantly inhibited”.
